Source: ChEMBL document CHEMBL2429757, “Discovery of a novel series of potent non-nucleoside inhibitors of hepatitis C virus NS5B” (J Med Chem, 2013)

Assay: Thermal aqueous solubility of the compound at pH 6.4 by high throughput assay
Type: physicochemical
Details: buffer

solubility: < 1 µg/mL
SMILES: COc1c(/C=C/c2ccc(NS(C)(=O)=O)cc2)cc(-c2ccc[nH]c2=O)cc1C(C)(C)C
